Results published in ChEMBL document CHEMBL1140529, “Androstene-3,5-dienes as ER-beta selective SERMs” (Bioorg Med Chem Lett, 2007).
pEC50, pIC50: −log10 of the molar value.

What follows are molecules tested against T1, Estrogen receptor (Homo sapiens, UniProt P03372).
T1 sequence (P03372 whole entry): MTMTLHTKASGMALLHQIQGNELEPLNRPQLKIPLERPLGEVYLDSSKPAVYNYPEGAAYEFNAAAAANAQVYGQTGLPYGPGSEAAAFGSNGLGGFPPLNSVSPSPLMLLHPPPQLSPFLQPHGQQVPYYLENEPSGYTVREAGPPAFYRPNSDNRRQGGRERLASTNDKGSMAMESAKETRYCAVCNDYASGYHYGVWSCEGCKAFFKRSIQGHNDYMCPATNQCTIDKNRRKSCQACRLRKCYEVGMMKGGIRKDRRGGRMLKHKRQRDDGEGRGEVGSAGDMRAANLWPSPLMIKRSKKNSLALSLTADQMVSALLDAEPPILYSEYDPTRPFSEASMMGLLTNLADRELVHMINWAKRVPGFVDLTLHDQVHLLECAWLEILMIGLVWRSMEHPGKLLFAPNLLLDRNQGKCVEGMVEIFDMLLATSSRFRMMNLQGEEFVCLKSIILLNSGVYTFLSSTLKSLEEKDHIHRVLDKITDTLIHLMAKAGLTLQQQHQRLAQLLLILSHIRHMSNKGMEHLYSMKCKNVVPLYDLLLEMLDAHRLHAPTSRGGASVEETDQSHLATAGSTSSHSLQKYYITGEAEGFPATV
Assay type: functional, cell-based, HEK293
Description: Agonist activity at ERalpha expressed in HEK293 cells by transactivation assay

| Compound | pEC50 |
| --- | --- |
| C=C[C@]12CCC(CC)=CC1=CC[C@H]1[C@@H]3CC[C@H](O)[C@@]3(C)CC[C@@H]12 | < 6.00 |
| C=C[C@]12CC[C@H](O)CC1=CC[C@@H]1[C@@H]2CC[C@@]2(C)[C@H]1CC[C@]2(C)O | < 6.00 |
| C=C[C@]12CC[C@@](C)(O)CC1=CC[C@H]1[C@@H]3CC[C@H](O)[C@@]3(C)CC[C@@H]12 | < 6.00 |
| C=C[C@]12CC[C@](C)(O)CC1=CC[C@H]1[C@@H]3CC[C@H](O)[C@@]3(C)CC[C@@H]12 | < 6.00 |
| C=C[C@]12CCC(C)=CC1=CC[C@H]1[C@@H]3CC[C@H](O)[C@@]3(C)CC[C@@H]12 | < 6.00 |
| C=C[C@]12CCC(C)=CC1=CC[C@@H]1[C@@H]2CC[C@@]2(C)[C@H]1CC[C@]2(C)O | < 6.00 |
| C=C[C@]12CCC(c3ccccc3)=CC1=CC[C@H]1[C@@H]3CC[C@H](O)[C@@]3(C)CC[C@@H]12 | < 6.00 |
| C=C[C@]12CCC(=C)C=C1CC[C@H]1[C@@H]3CC[C@H](O)[C@@]3(C)CC[C@@H]12 | 6.37 |
| C=C[C@]12CCC(Cl)=CC1=CC[C@H]1[C@@H]3CC[C@H](O)[C@@]3(C)CC[C@@H]12 | 6.09 |
| C#CC1(O)CC[C@H]2[C@@H]3CC=C4C=C(C)CC[C@]4(C=C)[C@H]3CC[C@@]21C (single isomer, unassigned) | 6.31 |
| C#CC1(O)CC[C@H]2[C@@H]3CC=C4C[C@@H](O)CC[C@]4(C=C)[C@H]3CC[C@@]21C (single isomer, unassigned) | 6.89 |

Each molecule was assayed against T2, Androgen receptor (Homo sapiens, UniProt P10275).
T2 sequence (P10275 whole entry): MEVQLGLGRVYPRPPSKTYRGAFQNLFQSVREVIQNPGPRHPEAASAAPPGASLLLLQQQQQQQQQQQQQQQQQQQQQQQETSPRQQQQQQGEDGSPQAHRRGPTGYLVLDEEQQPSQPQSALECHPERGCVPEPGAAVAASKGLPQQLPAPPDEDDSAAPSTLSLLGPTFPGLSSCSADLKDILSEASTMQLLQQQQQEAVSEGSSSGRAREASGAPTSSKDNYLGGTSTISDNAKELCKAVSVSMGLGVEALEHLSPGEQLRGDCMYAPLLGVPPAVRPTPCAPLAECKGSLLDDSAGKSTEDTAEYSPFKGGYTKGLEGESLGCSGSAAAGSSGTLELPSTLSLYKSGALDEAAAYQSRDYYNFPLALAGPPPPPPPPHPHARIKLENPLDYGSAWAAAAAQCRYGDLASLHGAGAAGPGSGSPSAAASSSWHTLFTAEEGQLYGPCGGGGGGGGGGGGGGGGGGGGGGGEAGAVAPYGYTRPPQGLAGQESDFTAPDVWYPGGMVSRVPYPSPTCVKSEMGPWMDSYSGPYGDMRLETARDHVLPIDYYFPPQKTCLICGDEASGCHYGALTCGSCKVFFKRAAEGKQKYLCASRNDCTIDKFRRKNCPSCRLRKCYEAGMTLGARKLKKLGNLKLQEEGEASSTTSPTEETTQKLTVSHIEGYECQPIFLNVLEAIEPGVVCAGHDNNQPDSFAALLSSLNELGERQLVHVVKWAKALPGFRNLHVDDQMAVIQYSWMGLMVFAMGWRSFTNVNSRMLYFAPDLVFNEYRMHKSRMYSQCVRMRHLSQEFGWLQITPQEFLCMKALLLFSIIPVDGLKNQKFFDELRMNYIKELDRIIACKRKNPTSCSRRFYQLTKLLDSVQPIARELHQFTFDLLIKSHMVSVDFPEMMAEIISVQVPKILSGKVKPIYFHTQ

| Compound | pIC50 |
| --- | --- |
| C=C1C=C2CC[C@H]3[C@@H]4CC[C@H](O)[C@@]4(C)CC[C@@H]3[C@@]2(C)CC1 | 7.40 |
| C=C[C@]12CCC(CC)=CC1=CC[C@H]1[C@@H]3CC[C@H](O)[C@@]3(C)CC[C@@H]12 | 6.30 |
| CC1=CC2=CC[C@H]3[C@@H]4CC[C@H](O)[C@@]4(C)CC[C@@H]3[C@@]2(C)CC1 | 5.65 |
| C=C[C@]12CC[C@@](C)(O)CC1=CC[C@H]1[C@@H]3CC[C@H](O)[C@@]3(C)CC[C@@H]12 | 5.58 |
| C=C[C@]12CC[C@](C)(O)CC1=CC[C@H]1[C@@H]3CC[C@H](O)[C@@]3(C)CC[C@@H]12 | 6.07 |
| C=C[C@]12CCC(C)=CC1=CC[C@H]1[C@@H]3CC[C@H](O)[C@@]3(C)CC[C@@H]12 | 6.25 |
| C=C[C@]12CCC(C)=CC1=CC[C@@H]1[C@@H]2CC[C@@]2(C)[C@H]1CC[C@]2(C)O | 6.28 |
| C=C[C@]12CCC(c3ccccc3)=CC1=CC[C@H]1[C@@H]3CC[C@H](O)[C@@]3(C)CC[C@@H]12 | 5.50 |
| C=C[C@]12CCC(=C)C=C1CC[C@H]1[C@@H]3CC[C@H](O)[C@@]3(C)CC[C@@H]12 | 6.48 |
| C#CC1(O)CC[C@H]2[C@@H]3CC=C4C=C(C)CC[C@]4(C=C)[C@H]3CC[C@@]21C (single isomer, unassigned) | 5.79 |

Biological target: T1, Estrogen receptor
Remark: another data set of the same source
Description: Binding affinity at human recombinant ERalpha

| Compound | pIC50 |
| --- | --- |
| C=C[C@]12CCC(CC)=CC1=CC[C@H]1[C@@H]3CC[C@H](O)[C@@]3(C)CC[C@@H]12 | 5.51 |
| C=C[C@]12CC[C@H](O)CC1=CC[C@@H]1[C@@H]2CC[C@@]2(C)[C@H]1CC[C@]2(C)O | 5.98 |
| C=C[C@]12CC[C@@](C)(O)CC1=CC[C@H]1[C@@H]3CC[C@H](O)[C@@]3(C)CC[C@@H]12 | < 5.00 |
| C=C[C@]12CC[C@](C)(O)CC1=CC[C@H]1[C@@H]3CC[C@H](O)[C@@]3(C)CC[C@@H]12 | 5.28 |
| C=C[C@]12CCC(C)=CC1=CC[C@H]1[C@@H]3CC[C@H](O)[C@@]3(C)CC[C@@H]12 | 5.84 |
| C=C[C@]12CCC(C)=CC1=CC[C@@H]1[C@@H]2CC[C@@]2(C)[C@H]1CC[C@]2(C)O | 5.36 |
| C=C[C@]12CCC(c3ccccc3)=CC1=CC[C@H]1[C@@H]3CC[C@H](O)[C@@]3(C)CC[C@@H]12 | < 5.00 |
| C=C[C@]12CCC(=C)C=C1CC[C@H]1[C@@H]3CC[C@H](O)[C@@]3(C)CC[C@@H]12 | < 5.00 |
| C=C[C@]12CCC(Cl)=CC1=CC[C@H]1[C@@H]3CC[C@H](O)[C@@]3(C)CC[C@@H]12 | 5.24 |
| C#CC1(O)CC[C@H]2[C@@H]3CC=C4C=C(C)CC[C@]4(C=C)[C@H]3CC[C@@]21C (single isomer, unassigned) | 5.73 |
| C#CC1(O)CC[C@H]2[C@@H]3CC=C4C[C@@H](O)CC[C@]4(C=C)[C@H]3CC[C@@]21C (single isomer, unassigned) | 6.82 |

These molecules were tested against T3, Estrogen receptor beta (Homo sapiens, UniProt Q92731).
T3 sequence (Q92731 whole entry): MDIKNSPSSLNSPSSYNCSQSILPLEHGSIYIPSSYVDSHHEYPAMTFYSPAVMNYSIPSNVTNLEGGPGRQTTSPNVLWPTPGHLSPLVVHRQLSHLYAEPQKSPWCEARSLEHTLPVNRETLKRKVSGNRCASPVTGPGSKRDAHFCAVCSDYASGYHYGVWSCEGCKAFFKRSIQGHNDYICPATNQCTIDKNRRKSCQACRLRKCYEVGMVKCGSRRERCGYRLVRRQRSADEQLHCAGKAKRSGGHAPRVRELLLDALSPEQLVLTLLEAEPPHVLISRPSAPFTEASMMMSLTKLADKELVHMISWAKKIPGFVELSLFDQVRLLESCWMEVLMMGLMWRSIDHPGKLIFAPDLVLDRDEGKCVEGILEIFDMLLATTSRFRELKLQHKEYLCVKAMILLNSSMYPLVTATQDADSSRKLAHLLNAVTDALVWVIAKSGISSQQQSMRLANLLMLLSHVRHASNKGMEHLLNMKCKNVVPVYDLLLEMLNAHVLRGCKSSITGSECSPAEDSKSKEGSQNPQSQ
Assay type: functional, cell-based, HEK293
Description: Agonist activity at ERbeta expressed in HEK293 cells by transactivation assay

| Compound | pEC50 |
| --- | --- |
| C=C1C=C2CC[C@H]3[C@@H]4CC[C@H](O)[C@@]4(C)CC[C@@H]3[C@@]2(C)CC1 | 6.68 |
| C=C[C@]12CCC(CC)=CC1=CC[C@H]1[C@@H]3CC[C@H](O)[C@@]3(C)CC[C@@H]12 | 6.25 |
| C=C[C@]12CC[C@H](O)CC1=CC[C@@H]1[C@@H]2CC[C@@]2(C)[C@H]1CC[C@]2(C)O | 6.72 |
| CC1=CC2=CC[C@H]3[C@@H]4CC[C@H](O)[C@@]4(C)CC[C@@H]3[C@@]2(C)CC1 | 6.66 |
| C=C[C@]12CC[C@@](C)(O)CC1=CC[C@H]1[C@@H]3CC[C@H](O)[C@@]3(C)CC[C@@H]12 | < 6.00 |
| C=C[C@]12CC[C@](C)(O)CC1=CC[C@H]1[C@@H]3CC[C@H](O)[C@@]3(C)CC[C@@H]12 | 6.62 |
| C=C[C@]12CCC(C)=CC1=CC[C@H]1[C@@H]3CC[C@H](O)[C@@]3(C)CC[C@@H]12 | 7.16 |
| C=C[C@]12CCC(C)=CC1=CC[C@@H]1[C@@H]2CC[C@@]2(C)[C@H]1CC[C@]2(C)O | 6.32 |
| C=C[C@]12CCC(c3ccccc3)=CC1=CC[C@H]1[C@@H]3CC[C@H](O)[C@@]3(C)CC[C@@H]12 | < 6.00 |
| C=C[C@]12CCC(=C)C=C1CC[C@H]1[C@@H]3CC[C@H](O)[C@@]3(C)CC[C@@H]12 | 6.64 |
| C=C[C@]12CCC(Cl)=CC1=CC[C@H]1[C@@H]3CC[C@H](O)[C@@]3(C)CC[C@@H]12 | 6.77 |
| C#CC1(O)CC[C@H]2[C@@H]3CC=C4C=C(C)CC[C@]4(C=C)[C@H]3CC[C@@]21C (single isomer, unassigned) | 7.51 |

Biological target: T3, Estrogen receptor beta
Remark: another data set of the same source
Description: Binding affinity at human recombinant ERbeta

| Compound | pIC50 |
| --- | --- |
| C=C1C=C2CC[C@H]3[C@@H]4CC[C@H](O)[C@@]4(C)CC[C@@H]3[C@@]2(C)CC1 | 7.47 |
| C=C[C@]12CCC(CC)=CC1=CC[C@H]1[C@@H]3CC[C@H](O)[C@@]3(C)CC[C@@H]12 | 6.94 |
| CC1=CC2=CC[C@H]3[C@@H]4CC[C@H](O)[C@@]4(C)CC[C@@H]3[C@@]2(C)CC1 | 8.03 |
| C=C[C@]12CC[C@@](C)(O)CC1=CC[C@H]1[C@@H]3CC[C@H](O)[C@@]3(C)CC[C@@H]12 | 5.60 |
| C=C[C@]12CC[C@](C)(O)CC1=CC[C@H]1[C@@H]3CC[C@H](O)[C@@]3(C)CC[C@@H]12 | 6.59 |
| C=C[C@]12CCC(C)=CC1=CC[C@H]1[C@@H]3CC[C@H](O)[C@@]3(C)CC[C@@H]12 | 8.05 |
| C=C[C@]12CCC(C)=CC1=CC[C@@H]1[C@@H]2CC[C@@]2(C)[C@H]1CC[C@]2(C)O | 7.28 |
| C=C[C@]12CCC(c3ccccc3)=CC1=CC[C@H]1[C@@H]3CC[C@H](O)[C@@]3(C)CC[C@@H]12 | 5.75 |
| C=C[C@]12CCC(=C)C=C1CC[C@H]1[C@@H]3CC[C@H](O)[C@@]3(C)CC[C@@H]12 | 6.92 |
| C=C[C@]12CCC(Cl)=CC1=CC[C@H]1[C@@H]3CC[C@H](O)[C@@]3(C)CC[C@@H]12 | 7.19 |
| C#CC1(O)CC[C@H]2[C@@H]3CC=C4C=C(C)CC[C@]4(C=C)[C@H]3CC[C@@]21C (single isomer, unassigned) | 7.14 |
| C[C@]12CC[C@H]3[C@@H](CCC4=CC(=O)CC[C@@]43C)[C@@H]1CC[C@@H]2O [TESTOSTERONE] | < 5.00 |
